How the values were obtained:
Experiment in all cases: relative viability (nuclei count vs DMSO), 5 days (fraction); higher = more cells survive
Lapatinib + Pemetrexed = compound: CS(=O)(=O)CCNCc1ccc(-c2ccc3ncnc(Nc4ccc(OCc5cccc(F)c5)c(Cl)c4)c3c2)o1 [Lapatinib] + Nc1nc2[nH]cc(CCc3ccc(C(=O)N[C@@H](CCC(=O)O)C(=O)O)cc3)c2c(=O)[nH]1 [Pemetrexed] (partner 0.2 µM)
Procedure, shortened: (§1)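 Dosing by pin tool came one day after lung cancer cell lines were seeded in 1536-well plates, using either one drug or a fixed anchor-drug dose plus five library-drug doses (not always all listed) in √10 steps. After 5 days, nuclei were counted on 4× images. Relative viability is treated-well nuclei count divided by vehicle-well nuclei count, and values are medians of duplicate plates.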

Lapatinib + Linsitinib = compound: CS(=O)(=O)CCNCc1ccc(-c2ccc3ncnc(Nc4ccc(OCc5cccc(F)c5)c(Cl)c4)c3c2)o1 [Lapatinib] + C[C@]1(O)C[C@@H](c2nc(-c3ccc4ccc(-c5ccccc5)nc4c3)c3c(N)nccn32)C1 [Linsitinib] (partner 1 µM)
Procedure, shortened: as §1

Wnt-C59 + Foretinib = compound: CC1=NC=CC(=C1)C2=CC=C(C=C2)CC(=O)NC3=CC=C(C=C3)C4=CN=CC=C4 [Wnt-C59] + COc1cc2c(Oc3ccc(NC(=O)C4(C(=O)Nc5ccc(F)cc5)CC4)cc3F)ccnc2cc1OCCCN1CCOCC1 [Foretinib] (partner 0.25 µM)
Procedure, shortened: as §1

Wnt-C59 + Palbociclib = compound: CC1=NC=CC(=C1)C2=CC=C(C=C2)CC(=O)NC3=CC=C(C=C3)C4=CN=CC=C4 [Wnt-C59] + CC(=O)c1c(C)c2cnc(Nc3ccc(N4CCNCC4)cn3)nc2n(C2CCCC2)c1=O [Palbociclib] (partner 0.5 µM)
Procedure, shortened: as §1

NCI-H1944
relative viability (Lapatinib + Pemetrexed; first compound 0.02 µM): 0.619
relative viability (Lapatinib + Pemetrexed; first compound 0.06325 µM): 0.493
relative viability (Lapatinib + Pemetrexed; first compound 0.2 µM): 0.551
relative viability (Lapatinib + Pemetrexed; first compound 0.6325 µM): 0.523
relative viability (Lapatinib + Pemetrexed; first compound 2 µM): 0.41
relative viability (Lapatinib + Linsitinib; first compound 0.2 µM): 0.959
relative viability (Lapatinib + Linsitinib; first compound 0.6325 µM): 0.767
relative viability (Lapatinib + Linsitinib; first compound 2 µM): 0.656
relative viability (Wnt-C59 + Foretinib; first compound 0.001 µM): 1.02
relative viability (Wnt-C59 + Foretinib; first compound 0.01 µM): 0.701
relative viability (Wnt-C59 + Foretinib; first compound 0.03162 µM): 0.841
relative viability (Wnt-C59 + Foretinib; first compound 0.1 µM): 0.867
relative viability (Wnt-C59 + Palbociclib; first compound 0.001 µM): 0.343
relative viability (Wnt-C59 + Palbociclib; first compound 0.01 µM): 0.328
relative viability (Wnt-C59 + Palbociclib; first compound 0.03162 µM): 0.334
relative viability (Wnt-C59 + Palbociclib; first compound 0.1 µM): 0.339

NCI-H1975
relative viability (Lapatinib + Pemetrexed; first compound 0.02 µM): 0.316
relative viability (Lapatinib + Pemetrexed; first compound 0.06325 µM): 0.298
relative viability (Lapatinib + Pemetrexed; first compound 0.2 µM): 0.287
relative viability (Lapatinib + Pemetrexed; first compound 0.6325 µM): 0.283
relative viability (Lapatinib + Pemetrexed; first compound 2 µM): 0.284
relative viability (Lapatinib + Linsitinib; first compound 0.02 µM): 0.843
relative viability (Lapatinib + Linsitinib; first compound 0.06325 µM): 0.927
relative viability (Lapatinib + Linsitinib; first compound 0.2 µM): 0.954
relative viability (Lapatinib + Linsitinib; first compound 0.6325 µM): 0.853
relative viability (Lapatinib + Linsitinib; first compound 2 µM): 0.694
relative viability (Wnt-C59 + Foretinib; first compound 0.001 µM): 0.819
relative viability (Wnt-C59 + Foretinib; first compound 0.01 µM): 0.891
relative viability (Wnt-C59 + Foretinib; first compound 0.03162 µM): 0.942
relative viability (Wnt-C59 + Foretinib; first compound 0.1 µM): 0.906
relative viability (Wnt-C59 + Palbociclib; first compound 0.001 µM): 0.605
relative viability (Wnt-C59 + Palbociclib; first compound 0.01 µM): 0.601
relative viability (Wnt-C59 + Palbociclib; first compound 0.03162 µM): 0.607
relative viability (Wnt-C59 + Palbociclib; first compound 0.1 µM): 0.554

NCI-H1993
relative viability (Lapatinib + Pemetrexed; first compound 0.02 µM): 0.595
relative viability (Lapatinib + Pemetrexed; first compound 0.2 µM): 0.578
relative viability (Lapatinib + Pemetrexed; first compound 0.6325 µM): 0.607
relative viability (Lapatinib + Pemetrexed; first compound 2 µM): 0.543
relative viability (Lapatinib + Linsitinib; first compound 0.02 µM): 0.743
relative viability (Lapatinib + Linsitinib; first compound 0.2 µM): 0.816
relative viability (Lapatinib + Linsitinib; first compound 0.6325 µM): 0.752
relative viability (Lapatinib + Linsitinib; first compound 2 µM): 0.639
relative viability (Wnt-C59 + Foretinib; first compound 0.001 µM): 0.81
relative viability (Wnt-C59 + Foretinib; first compound 0.03162 µM): 0.987
relative viability (Wnt-C59 + Foretinib; first compound 0.1 µM): 0.706
relative viability (Wnt-C59 + Palbociclib; first compound 0.001 µM): 0.694
relative viability (Wnt-C59 + Palbociclib; first compound 0.01 µM): 0.648
relative viability (Wnt-C59 + Palbociclib; first compound 0.03162 µM): 0.663
relative viability (Wnt-C59 + Palbociclib; first compound 0.1 µM): 0.602

NCI-H2009
relative viability (Lapatinib + Pemetrexed; first compound 0.02 µM): 0.972
relative viability (Lapatinib + Pemetrexed; first compound 0.06325 µM): 1.02
relative viability (Lapatinib + Pemetrexed; first compound 0.2 µM): 1.05
relative viability (Lapatinib + Pemetrexed; first compound 0.6325 µM): 0.98
relative viability (Lapatinib + Pemetrexed; first compound 2 µM): 0.998
relative viability (Lapatinib + Linsitinib; first compound 0.02 µM): 1.22
relative viability (Lapatinib + Linsitinib; first compound 0.06325 µM): 1.22
relative viability (Lapatinib + Linsitinib; first compound 0.2 µM): 1.22
relative viability (Lapatinib + Linsitinib; first compound 0.6325 µM): 1.18
relative viability (Lapatinib + Linsitinib; first compound 2 µM): 1.09
relative viability (Wnt-C59 + Foretinib; first compound 0.001 µM): 1.26
relative viability (Wnt-C59 + Foretinib; first compound 0.01 µM): 1.21
relative viability (Wnt-C59 + Foretinib; first compound 0.03162 µM): 1.22
relative viability (Wnt-C59 + Foretinib; first compound 0.1 µM): 0.819
relative viability (Wnt-C59 + Palbociclib; first compound 0.001 µM): 0.231
relative viability (Wnt-C59 + Palbociclib; first compound 0.01 µM): 0.149
relative viability (Wnt-C59 + Palbociclib; first compound 0.03162 µM): 0.198
relative viability (Wnt-C59 + Palbociclib; first compound 0.1 µM): 0.239

NCI-H2023
relative viability (Lapatinib + Pemetrexed; first compound 0.06325 µM): 0.182
relative viability (Lapatinib + Pemetrexed; first compound 0.2 µM): 0.233
relative viability (Lapatinib + Pemetrexed; first compound 0.6325 µM): 0.193
relative viability (Lapatinib + Pemetrexed; first compound 2 µM): 0.186
relative viability (Lapatinib + Linsitinib; first compound 0.02 µM): 0.594
relative viability (Lapatinib + Linsitinib; first compound 0.06325 µM): 0.519
relative viability (Lapatinib + Linsitinib; first compound 0.2 µM): 0.474
relative viability (Lapatinib + Linsitinib; first compound 0.6325 µM): 0.512
relative viability (Lapatinib + Linsitinib; first compound 2 µM): 0.366
relative viability (Wnt-C59 + Foretinib; first compound 0.001 µM): 1.1
relative viability (Wnt-C59 + Foretinib; first compound 0.01 µM): 0.788
relative viability (Wnt-C59 + Foretinib; first compound 0.03162 µM): 1.01
relative viability (Wnt-C59 + Foretinib; first compound 0.1 µM): 0.667
relative viability (Wnt-C59 + Palbociclib; first compound 0.001 µM): 0.389
relative viability (Wnt-C59 + Palbociclib; first compound 0.01 µM): 0.4
relative viability (Wnt-C59 + Palbociclib; first compound 0.03162 µM): 0.399
relative viability (Wnt-C59 + Palbociclib; first compound 0.1 µM): 0.371
